# Entries after “also recorded” stand apart in the source; their conditions may differ.
# Tests used:
# [1] = test system: MV4; 11 cells; assay: Viability of pediatric AML cell line; type: cell-based; conditions: 11, FIG. 6A
# [2] = test system: TC32 Ewing sarcoma cells; assay: Annexin V/PI staining and FACS analysis; type: cell-based; conditions: 1 μM, 48 hours post-treatment, FIG. 16
# Description: TC32 Ewing sarcoma cells were treated with vehicle or 1 μM ALRN-7041 and then subjected to Annexin V/PI staining and FACS analysis at 48 hours post-treatment.
# [3] = test system: TC32 Ewing Sarcoma xenografts; assay: Xenograft tumor growth; type: in vivo, mice; conditions: 30 mg/kg IV q.o.d. vs vehicle, two-way ANOVA p=0.0036, FIG. 19
# Description: Treatment of mice bearing TC32 Ewing Sarcoma xenografts with 30 mg/kg ALRN-7041 IV q.o.d. […] Error bars are mean±SD. For each animal, treatment was instituted when tumors achieved a tumor volume of 100 mm^3, as determined by caliper measurement. Statistical ignificance was calculated by two-way ANOVA analysis (p=0.0036).
# [4] = test system: Ewing sarcoma cells bearing mutant or deleted p53; assay: CellTiter-Glo viability, Ewing sarcoma cell line panel; type: cell-based; conditions: 72 h, FIG. 14
# Description: (§1) Error bars are mean±s.e.m. for eight technical replicates.
# (§2) A panel of Ewing sarcoma cell lines that bear wild-type p53 (black) vs. mutant or deleted p53 (grey) were exposed to a serial dilution of ALRN-7041 (FIG. 14).
# [5] = test system: Ewing sarcoma cell lines that bear wild-type p53; assay: as above; type: cell-based; conditions: 72 h, FIG. 14
# Description: as §1, §2
# [6] = test system: MV4; 11 cells; assay: Cellular uptake, fluorescence scan of lysates from treated cells; type: cell-based; conditions: full serum, 4 h, FIG. 6B
# Description: Cellular Penetrability Assays: To measure the cell penetrability of peptides or crosslinked polypeptides, intact cells are incubated with fluoresceinated crosslinked polypeptides (10 μM) for 4 hrs in serum-free media or in media supplemented with human serum at 37° C., washed twice with media and incubated with trypsin (0.25%) for 10 min at 37° C. The cells are washed again and resuspended in PBS. Cellular fluorescence is analyzed, for example, by using either a FACSCalibur flow cytometer or Cellomics' KineticScan® HCS Reader. Alternative methods include, e.g., high content epifluorescence microscopy, confocal imaging, or fluorescence scan of electrophoresed lysates from FITC-peptide treated cells (see, e.g., LaBelle et al. JCI 2012, 122: 2018-31).
# [7] = test system: TC32 Ewing Sarcoma xenograft; assay: Western analysis of xenograft tumor tissue; type: in vivo, mice; conditions: three intravenous doses, 8 hours after last dose, FIG. 17
# Description: After TC32 Ewing sarcoma tumor engraftment, mice were treated with three intravenous doses of ALRN-7041 or vehicle and sacrificed 8 hours after the last dose. Each lane of the gel represents an individual mouse tumor, subjected to western analysis using anti-MDM2, p53, and p21 antibodies. Anti-tubulin was used as a loading control.
# [8] = test system: TC32 Ewing Sarcoma xenografts; assay: mRNA quantitation in xenograft tumor tissue; type: in vivo, mice; conditions: normalized to vehicle-treated samples, FIG. 18
# Description: ALRN-7041 treatment of mice bearing TC32 Ewing Sarcoma xenografts increases MDM2 and p21 mRNA levels in tumor tissue (FIG. 18). Each bar represents the response of an individual mouse tumor, as assessed by replicates of mRNA quantitation. Values are normalized to vehicle-treated samples. Error bars are mean±SD.
# [9] = test system: p53 wild-type TC32 and TC138 Ewing sarcoma cells; assay: Western blot of lysates, p53 pathway; type: cell-based; conditions: FIG. 15
# Description: Western blot analysis of electrophoresed lysates from p53 wild-type TC32 and TC138 Ewing sarcoma cells treated with ALRN-7041 at the indicated doses and time points and probed with anti-MDM2, p53, and p21 antibodies.
# [10] = test system: p53 protein level in RS4; 11 cells; assay: p53 protein level by flow cytometry; type: cell-based; conditions: 3 hours, 10% serum, FIG. 12
# Description: RS4; 11 cells were plated in 6-well plates (10^6/well) in RMPI containing 10% FBS and treated for 3 hours with ALRN-7041, ALRN-7041 F19A, or vehicle control (0.2% DMSO) in the presence of 10% serum. Cells were then harvested by centrifugation, washed in ice cold PBS, and resuspended in 100 viL PBS containing 1 μL Fixable Viability Stain 450 (BD Biosciences, Franklin Lakes. NJ, USA) and incubated in the dark at room temperature for 15 minutes. The cells were stained for p53 immunofluorescence with Cytofix/Cytoperm and the PE Mouse Anti-p53 Set (BD Biosciences) according to the manufacturer's instructions, using 10 viL PE-G59-12 anti-p53 mouse IgG1 or isotype control antibody per 10 6 cells. Stained and fixed cells were analyzed on an LSR II flow cytometer (BD Biosciences). Cell populations were gated on forward and side scatter to select for single cells and on fluorescence at 450 nm to select for live cells, and PE fluorescence in the gated population was measured at 578 nm.
# [11] = test system: RS4; 11 leukemia cells; assay: CellTiter-Glo viability, leukemia cells; type: cell-based; conditions: wild-type p53, 10% serum, 48 h, FIG. 11
# Description: (§3) Importantly, the sensitivity of RS4; 11 and Molm-14 cells is peptide sequence dependent, as the F19A point mutant analog of ALRN-7041, ALRN-7041 F19A, has no effect (FIG. 11). Leukemia cells were treated in 10% serum with a serial dilution of stapled p53 peptides or Nutlin 3a, and then measured by CellTiter-Glo assay.
# [12] = test system: Nomo-1; assay: CellTiter-Glo viability, leukemia cells; type: cell-based; conditions: mutant p53 (C242 frameshift), 10% serum, 48 h, FIG. 11
# Description: as §3
# [13] = test system: Thp-1; assay: CellTiter-Glo viability, leukemia cells; type: cell-based; conditions: mutant p53 (R174 frameshift), 10% serum, 48 h, FIG. 11
# Description: as §3
# [14] = test system: Molm-14 leukemia cells; assay: CellTiter-Glo viability, leukemia cells; type: cell-based; conditions: wild-type p53, 10% serum, 48 h, FIG. 11
# Description: as §3
# [15] = test system: DIPG neurospheres bearing wild-type p53
# Description: (§4) Cells were plated in 96-well opaque plates (5000 cells/well) in Neurobasal-A/DMEM/F-12 mixture media containing HEPES, MEM sodium pyruvate, MEM non-essential amino acids, GlutaMAX, B27 Supplement, H-EGF, H-FGF, H-PDGF-AA, H-PDGF-BB, and heparin. The following day, the cells were treated with the indicated concentrations of drug or vehicle control (0.2% DMSO). […] Cell viability was measured after 72 h by CellTiter-Glo assay (Promega, Madison, WI, USA), performed according to the manufacturer's instructions, and percent viability calculated based on the untreated controls. Error bars are mean±s.e.m for experiments performed in technical triplicate.
# [16] = test system: high grade glioma (e.g. GBM) neurospheres bearing mutant p53; assay: CellTiter-Glo viability, neurospheres; type: cell-based; conditions: 72 h, FIG. 13
# Description: as §4
compound,measurement,setting,value
"COc1ccc(C2=N[C@@H](c3ccc(Cl)cc3)[C@@H](c3ccc(Cl)cc3)N2C(=O)N2CCNC(=O)C2)c(OC(C)C)c1 [Nutlin-3a, reference compound]",cell viability,[1],little to no effect; also recorded: resistant
Ac-LTF*EYWAQZ*SAA-NH2 [ALRN-7041],Annexin V/PI double positivity (apoptosis),[2],robust Annexin V/PI double positivity
same,tumor growth,[3],statistically significant suppression of tumor growth
same,cell viability,[4],little to no effect
same,cell viability,[5],dose-responsively impaired the viability
same,cellular uptake,[6],readily taken up by cells
same,MDM2 protein level in tumor tissue,[7],induces
same,p21 protein level in tumor tissue,[7],induces
same,p53 protein level in tumor tissue,[7],induces
same,MDM2 mRNA level in tumor tissue,[8],increases
same,p21 mRNA level in tumor tissue,[8],increases
same,MDM2 protein induction,[9],transient induction
same,p21 protein induction,[9],robust induction
same,p53 protein induction,[9],robust induction
same,p53 protein level,[10],dose-responsively upregulates p53 protein level
same,cell viability,[11],succumb to ALRN-7041 in dose-responsive fashion
same,cell viability,[12],unaffected by treatment
same,cell viability,[13],unaffected by treatment
same,cell viability,[14],succumb to ALRN-7041 in dose-responsive fashion
same,cell viability,[1],impairs cell viability in both a dose-responsive and peptide sequence-dependent fashion; also recorded: dose-responsively impairs the viability
same,cytotoxic effect compared to a selective small molecule inhibitor of HDM2,[15],markedly enhanced cytotoxic effect
same,cell viability,"[15]; 72 h, FIG. 13",succumb to treatment
same,cell viability,[16],no susceptibility

# Reference: US20240075099A1, “COMPOSITIONS, ASSAYS, AND METHODS FOR TARGETING HDM2 AND HDMX TO REVERSE THE INHIBITION OF p53 IN [sequence] CANCERS” (Dana-Farber Cancer Institute, Inc., priority 2016, published 2024)
